# Experimental data reported in patent publication US20250099427A1, “Drug and Method of Treating or Preventing Renal Disease Using Drug” (Showa University, priority 2018, published 2025).
# Tested on: Chronic Renal Failure Animal Model
# Assay: Test using chronic renal failure animal model (nephrectomy + acetic acid application), renal function parameters
# Type: in vivo, mouse
# Settings: mean±standard error; for Urinary output / Urinary protein: 24 h urine 12 weeks after acetic acid; for BUN / sCr: evaluated 12 weeks after acetic acid; for Ccr: creatinine clearance, 12 weeks after acetic acid
# Protocol: A male ddY strain mouse (body weight: 30 g to 40 g) was used. Under anesthesia with isoflurane, the right flank of the mouse was incised, the renal arteries and veins were ligated, and then the right kidney was isolated. After suturing, acrinol was applied to the suture site as a disinfection treatment, and enrofloxacin was subcutaneously administered at 5 mg/kg as a preventive measure against infection, and acetaminophen was subcutaneously administered at 75 mg/kg as an analgesic treatment. After a recovery period of 3 to 4 weeks, the left abdomen of the mouse was incised, 100% acetic acid was applied to both sides of the kidney 10 times. This was defined as one course, and two courses were conducted at 5 minute intervals. After suturing, postoperative treatment was conducted in the same manner as in the removal of one of the kidneys. Considering the effect of surgery, a sham group to which acetic acid was not applied was provided.
# 4 weeks after the application of acetic acid, SMTP-7 was administered at a dose of 10 mg/kg or 30 mg/kg. The administration was carried out three times a week for 8 consecutive weeks by intraperitoneal administration. In addition, physiological saline was similarly administered to the sham group (without acetic acid application) and the Control group (with acetic acid application).
# 12 weeks after the application of acetic acid, urine was collected for 24 hours using a metabolic cage, and the urinary output was measured. During collecting urine, water was freely given. After urine collection, blood was collected from the descending aorta, the collected blood was centrifuged at 3000 rpm for 15 minutes, serum was separated, and BUN (urea nitrogen) and sCr (serum creatinine value) were measured. Further, protein and creatinine in the urine were also measured to calculate creatinine clearance (Ccr). BUN was measured using Urea B-test Wako (manufactured by Wako Pure Chemical Industries, Ltd.) and a QuantiChrom Urea Assay Kit (manufactured by Funakoshi Co., Ltd.), sCr was measured using Lab Assay Creatinine (manufactured by Wako Pure Chemical Industries, Ltd.), and urinary protein was measured using a BCA Protein assay kit (Thermo Fisher Scientific).
# Renal function was evaluated by measuring BUN, sCr, urinary output, and urinary protein. In addition, urinary creatinine was measured to calculate creatinine clearance (Ccr).
# In Table 9, the experimental results are expressed in mean±standard error. With reference to statistically significant difference, an unpaired test between two groups (Student's t-test) was conducted for comparison between two groups, and one-way analysis of variance was conducted and then a Dunnett test was conducted for comparison among multiple groups. In all cases, a significance level of 5% or less (P<0.05) was regarded as significant difference.
# The experiment and evaluation were carried out in the same manner as in the SMTP-7 (30 mg/kg) administration group, except that edaravone (30 mg/kg) was administered instead of SMTP-7 in the SMTP-7 (30 mg/kg) administration group.
# [1] = 10 mg/kg intraperitoneal three times a week for 8 weeks from 4 weeks after acetic acid
# [2] = 30 mg/kg intraperitoneal three times a week for 8 weeks from 4 weeks after acetic acid
compound,measurement,setting,value
CC(C)=CCC/C(C)=C/CC[C@@]1(C)Oc2c(c(O)cc3c2CN(CCC[C@@H](C(=O)O)N2Cc4c(cc(O)c5c4O[C@](C)(CC/C=C(\C)CCC=C(C)C)[C@@H](O)C5)C2=O)C3=O)C[C@@H]1O [SMTP-7],Urinary output,[1],142 ± 31.7 mL/kg/day
same,Urinary protein,[1],968 ± 137 mg/kg/day
same,BUN,[1],80.5 ± 13.3 mg/dL
same,sCr,[1],0.71 ± 0.07 mg/dL
same,Urinary output,[2],77.3 ± 18.5 mL/kg/day
same,Urinary protein,[2],527 ± 96.2 mg/kg/day
same,BUN,[2],55.1 ± 1.57 mg/dL
same,sCr,[2],0.60 ± 0.05 mg/dL
same,Ccr,[1],1.95 ± 0.23 mL/min/kg
same,Ccr,"30 mg/kg intraperitoneal three times a week for 8 weeks from 4 weeks after acetic acid, 30 mg/kg",2.66 ± 0.37 mL/min/kg
